Test results taken from ChEMBL document CHEMBL2157951, “Polysulfated xanthones: multipathway development of a new generation of dual anticoagulant/antiplatelet agents” (J Med Chem, 2011).
pIC50: −log10 of the molar value. Calls of active or inactive are those of the source. No cut-off for these calls is given here.

Experiments:
[1] = Stability in RPMI medium at 37 degC assessed as compound degradation incubated for 24 hrs; assay type: physicochemical
Plasma [2] = test: Anticoagulant activity in human plasma assessed as concentration required to double the activated partial thromboplastin time by coagulometer analysis; assay type: functional
Plasma [3] = test: Reduction of prothrombin level in citreated human plasma by measuring prothrombin clotting time after mixing with factor 2 deficient plasma
Blood [4] = test: Anticoagulant activity in human whole blood assessed as time from beginning of clot formation until the amplitude of thromboelastogram reaches 20 mm at 3.12 x 10^-4 M by thromboelastography analysis in presence of intrinsic activator (reference value: 82 sec); assay type: functional
[5] = molecular target: Vitamin K-dependent protein C (Homo sapiens) (UniProt P04070); test: Inhibition of activated protein C in citreated human plasma using CBS 42.46 as substrate at 2 x 10^-3 M by chromogenic assay
Plasma [6] = test: Anticoagulant activity in human plasma assessed as concentration required to double the prothrombin time by coagulometer analysis; assay type: functional
[7] = molecular target: Coagulation factor X/antithrombin III (Homo sapiens, UniProt P00742+P01008); test: Inhibition of human factor 10a/antithrombin 3 assessed as CBS 31.39 substrate hydrolysis by spectrophotometric analysis; assay type: protein-complex assay
Plasma [8] = test: Anticoagulant activity in human plasma assessed as effect on thrombin time by coagulometer analysis; assay type: functional, cell-free
Plasma [9] = test: Anticoagulant activity in human plasma assessed as effect on activated partial thromboplastin time by coagulometer analysis; assay type: functional, cell-free
[10] = molecular target: Prothrombin (Homo sapiens) (UniProt P00734); test: Inhibition of human thrombin assessed as chromozym TH substrate hydrolysis at 1.9 x 10^-9 by spectrophotometric analysis
Coagulation factor X [11] = molecular target: T1, Coagulation factor X (Homo sapiens, UniProt P00742); test: Inhibition of human factor 10a assessed as CBS 31.39 substrate hydrolysis by spectrophotometric analysis
Plasma [12] = test: Anticoagulant activity in human plasma assessed as concentration required to double the thrombin time by coagulometer analysis; assay type: functional
Plasma [13] = test: Anticoagulant activity in human plasma assessed as effect on prothrombin time by coagulometer analysis; assay type: functional, cell-free
Coagulation factor X [14] = molecular target: T1, Coagulation factor X; test: Inhibition of human factor 10a assessed as CBS 31.39 substrate hydrolysis at 1 x 10^-3 M by spectrophotometric analysis
Blood [15] = test: Anticoagulant activity in human whole blood assessed as amplitude of the clot at 10 mins at 3.12 x 10^-4 M by thromboelastography analysis in presence of intrinsic activator (reference value: 57 mm); assay type: functional
[16] = molecular target: Vitamin K-dependent protein C (Homo sapiens) (UniProt P04070); test: Inhibition of activated protein C in citreated human plasma using CBS 42.46 as substrate at 2.50 x 10^-4 M by chromogenic assay
[17] = molecular target: Prothrombin (Homo sapiens) (UniProt P00734); test: Inhibition of human thrombin assessed as chromozym TH substrate hydrolysis at 1 x 10^-4 to 1 x 10^-3 M by spectrophotometric analysis in presence of antithrombin-3
Blood [18] = test: Anticoagulant activity in human whole blood assessed as acceleration/kinetics of fibrin buildup and cross-linking at 3.12 x 10^-4 M by thromboelastography analysis in presence of intrinsic activator (reference value: 77 degree); assay type: functional
Blood [19] = test: Anticoagulant activity in human whole blood assessed as period of time from initiation of the test to the initial fibrin formation at 3.12 x 10^-4 M by thromboelastography analysis in presence of intrinsic activator (reference value: 188 sec); assay type: functional
[20] = molecular target: Coagulation factor X/antithrombin III (Homo sapiens) (UniProt P01008+P00742); test: Inhibition of human factor 10a/antithrombin 3 assessed as CBS 31.39 substrate hydrolysis at 1 x 10^-3 M by spectrophotometric analysis; assay type: protein-complex assay
Plasma [21] = test: Anticoagulant activity in human plasma assessed as effect on prothrombin time at 5 mM by coagulometer analysis relative to untreated control; assay type: functional
Plasma [22] = test: Anticoagulant activity in human plasma assessed as effect on activated partial thromboplastin time at 5 mM by coagulometer analysis relative to untreated control; assay type: functional
Plasma [23] = test: Anticoagulant activity in human plasma assessed as effect on thrombin time at 5 x 10^-3 M by coagulometer analysis; assay type: functional, cell-free
Mus musculus [24] = test: Anticoagulant activity in mouse assessed as increase of activated thrombin time at 300 umol/kg, po; assay type: functional, organism-based
[25] = Chemical stability of the compound in aqueous solution at 1.00 x 10^-2, 1.00 x 10^-4 and 1.00 x 10^-6 M at -20 degC after 15 days by HPLC analysis; settings: buffer, 360 h, 10 mM, 100 µM, 1 µM
Plasma [26] = test: Metabolic stability in human plasma after 3 hrs by HPLC analysis by HPLC analysis; assay type: ADME, cell-free
Mus musculus [27] = test: Anticoagulant activity in mouse assessed as increase of activated partial thromboplastin time at 300 umol/kg, po; assay type: functional, organism-based
[28] = Solubility of the compound in water; assay type: physicochemical; settings: buffer
Mus musculus [29] = test: Anticoagulant activity in ip dosed mouse assessed as increase of activated partial thromboplastin time; assay type: functional, organism-based
[30] = Chemical stability of the compound in aqueous solution at 1.00 x 10^-2, 1.00 x 10^-4 and 1.00 x 10^-6 M at room temperature after 15 days by HPLC analysis; settings: buffer, 360 h, 10 mM, 100 µM, 1 µM
[31] = Chemical stability of the compound in sodium acetate buffer at pH 5 assessed as compound remaining at 1 x 10^-5 M after 120 mins by HPLC analysis; assay type: physicochemical; settings: read-out: Stability
[32] = Chemical stability of the compound in potassium phosphate buffer at pH 6.7 assessed as compound remaining at 1 x 10^-5 M after 120 mins by HPLC analysis; assay type: physicochemical; settings: read-out: Stability
[33] = Chemical stability of the compound in aqueous solution at 1.00 x 10^-2, 1.00 x 10^-4 and 1.00 x 10^-6 M at 4 degC after 15 days by HPLC analysis; settings: buffer, 360 h, 10 mM, 100 µM, 1 µM
[34] = Chemical stability of the compound in HCl buffer at pH 1 assessed as compound remaining at 1 x 10^-5 M after 120 mins by HPLC analysis; assay type: physicochemical; settings: read-out: Stability
Mus musculus [35] = test: Hepatotoxicity in mouse assessed as GPT level in plasma at 300 umol/kg, ip after 120 mins (reference value: 40 U/L); assay type: toxicity, organism-based; settings: in vivo, 2 h
Mus musculus [36] = test: Anticoagulant activity in ip dosed mouse assessed as increase of thrombin time; assay type: functional, organism-based
[37] = Chemical stability of the compound in sodium boric acid at pH 9.1 assessed as compound remaining at 1 x 10^-5 M after 120 mins by HPLC analysis; assay type: physicochemical; settings: sodium boric acid buffer, read-out: Stability
Mus musculus [38] = test: Anticoagulant activity in mouse assessed as increase of thrombin time at 150 and 300 umol/kg, ip measured after 120 mins; assay type: functional, organism-based
Mus musculus [39] = test: Anticoagulant activity in ip dosed mouse assessed as increase of prothrombin time; assay type: functional, organism-based
Mus musculus [40] = test: Anticoagulant activity in mouse assessed as increase of activated prothrombin time at 300 umol/kg, po; assay type: functional, organism-based
Mus musculus [41] = test: Anticoagulant activity in mouse assessed as increase of activated partial thromboplastin time at 150 and 300 umol/kg, ip measured after 120 mins; assay type: functional, organism-based
Coagulation factor X [42] = molecular target: T1, Coagulation factor X; test: Non-competitive inhibition of human factor 10a using CBS 31.39 as substrate hydrolysis by Michaelis-Menten equation analysis
Mus musculus [43] = test: Anticoagulant activity in mouse assessed as increase of prothrombin time at 150 and 300 umol/kg, ip measured after 120 mins; assay type: functional, organism-based
Mus musculus [44] = test: Hepatotoxicity in mouse assessed as GOT level in plasma at 300 umol/kg, ip after 120 mins (reference value: 108 U/L); assay type: toxicity, organism-based; settings: in vivo, 2 h
[45] = Chemical stability of the compound in phosphate buffered saline at pH 7.4 assessed as compound remaining at 1 x 10^-5 M after 120 mins by HPLC analysis; assay type: physicochemical; settings: read-out: Stability

O=S(=O)(O)Oc1ccc(/C=C/c2cc(O)cc(O)c2)cc1
Stability ([1]; 24 h): Stable

O=c1c2ccc(O[C@@H]3O[C@H](COS(=O)(=O)O)[C@@H](OS(=O)(=O)O)[C@H](OS(=O)(=O)O)[C@H]3OS(=O)(=O)O)cc2oc2cc(O[C@@H]3O[C@H](COS(=O)(=O)O)[C@@H](OS(=O)(=O)O)[C@H](OS(=O)(=O)O)[C@H]3OS(=O)(=O)O)ccc12
2aPTT (Plasma [2]): 0.06 mM
Activity (Plasma [3]): Active
Time (Blood [4]): 114 s
inhibition [5]: > 50%
2PT (Plasma [6]): 0.71 mM
pIC50 [7]: 3.72
Activity (Plasma [8]): Dose-dependent effect
Activity (Plasma [9]): Dose-dependent effect
inhibition [10]: 37%
pIC50 (Coagulation factor X [11]): 3.13
Activity (Plasma [12]): 0.61 mM
Activity (Plasma [13]): Dose-dependent effect
inhibition (Coagulation factor X [14]): 66.3%
Activity (Blood [15]): 51 mm
inhibition [16]: inactive
inhibition [17]: inactive
Activity (Blood [18]): 68 degree
Time (Blood [19]): 469 s
inhibition [20]: 88.8%

O=c1c2ccc(OS(=O)(=O)O)cc2oc2cc(OS(=O)(=O)O)ccc12
2aPTT (Plasma [2]): >5 mM
2PT (Plasma [6]): >5 mM
fold change (FC) (Plasma [21]): 1.1
fold change (FC) (Plasma [22]): 1.3
Activity (Plasma [23]): inactive

O=c1c2cc(O)c(O)cc2oc2cc(O)c([C@@H]3O[C@H](COS(=O)(=O)O)[C@@H](OS(=O)(=O)O)[C@H](OS(=O)(=O)O)[C@H]3OS(=O)(=O)O)c(O)c12
2aPTT (Plasma [2]): 0.39 mM
Activity (Plasma [8]): Dose-dependent effect
Activity (Plasma [9]): Dose-dependent effect
Activity (Plasma [13]): Dose-dependent effect

O=c1c2cc(O)c(O)cc2oc2cc(O)c([C@@H]3O[C@H](CO)[C@@H](O)[C@H](O)[C@H]3O)c(O)c12
Activity (Plasma [21]): inactive
Activity (Plasma [22]): inactive
Activity (Plasma [23]): inactive

O=c1c2ccc(O[C@@H]3O[C@H](CO)[C@@H](O)[C@H](O)[C@H]3O)cc2oc2cc(O[C@@H]3O[C@H](CO)[C@@H](O)[C@H](O)[C@H]3O)ccc12
Activity (Plasma [21]): inactive
Activity (Plasma [22]): inactive
Activity (Plasma [23]): inactive

O=c1c2cc(OS(=O)(=O)O)c(OS(=O)(=O)O)cc2oc2cc(OS(=O)(=O)O)c([C@@H]3O[C@H](COS(=O)(=O)O)[C@@H](OS(=O)(=O)O)[C@H](OS(=O)(=O)O)[C@H]3OS(=O)(=O)O)c(O)c12 [MANGIFERIN HEPTASULFATE]
Activity (Mus musculus [24]): inactive
Stability [25]: Stable
Stability (Plasma [26]): Stable
2aPTT (Plasma [2]): 0.21 mM
Activity (Plasma [3]): Active
Time (Blood [4]): 86 s
inhibition [5]: > 50%
2PT (Plasma [6]): 1.6 mM
Activity (Plasma [8]): Dose-dependent effect
Activity (Plasma [9]): Dose-dependent effect
Activity (Mus musculus [27]): inactive
inhibition [10]: 37%
solubility [28]: soluble
Activity (Mus musculus [29]): Dose-dependent effect
Stability [30]: Stable
remaining at 2 h, 10 µM [31]: > 85%
pIC50 (Coagulation factor X [11]): 3.01
remaining at 2 h, 10 µM [32]: > 85%
Activity (Plasma [12]): 1.96 mM
Stability [33]: Stable
remaining at 2 h, 10 µM [34]: > 85%
Activity (Mus musculus [35]): 46 U/L
Activity (Plasma [13]): Dose-dependent effect
inhibition (Coagulation factor X [14]): 52.1%
Activity (Blood [15]): 50 mm
Activity (Mus musculus [36]): Dose-dependent effect
remaining at 2 h, 10 µM [37]: > 85%
inhibition [16]: inactive
Activity (Mus musculus [38]): Active
inhibition [17]: inactive
Activity (Blood [18]): 73 degree
Time (Blood [19]): 247 s
inhibition [20]: 41%
Activity (Mus musculus [39]): Dose-dependent effect
Activity (Mus musculus [40]): inactive
Activity (Mus musculus [41]): Active
inhibition (Coagulation factor X [42]): Active
Activity (Mus musculus [43]): Active
Activity (Mus musculus [44]): 125 U/L
remaining at 2 h, 10 µM [45]: > 85%

Oc1ccc(/C=C/c2cc(O)cc(O)c2)cc1 [RESVERATROL]
degraded at 24 h ([1]; RPMI medium, read-out: Drug degradation): 50%
